The source made the active and inactive calls.
What was measured:
Hepatocyte [1] = test: Inhibition of insulin-resistance in insulin-resistant C57BL/J mouse […] primary hepatocytes assessed as increase in insulin receptor phosphorylation pretreated for 24 hrs followed by compound washout and further addition of insulin measured after 20 mins by Western blot analysis; assay type: functional, cell-based; settings: dose 0.625-2.5 µM
Mus musculus [2] = test: Hypoglycemic activity in BKD db/db mouse assessed as decrease in serum insulin level at 40 to 80 mg/kg/day, po qd for 7 weeks; assay type: functional, organism-based; settings: dose 40-80 mg/kg/day
[3] = Acute toxicity in Kunming mouse assessed as change in cell morphology of heart at 2000 mg/kg, po measured for 14 days by H and E staining based analysis; assay type: organism-based; settings: in vivo, 336 h, time 14 day
[4] = biological target: T1, Tyrosine-protein phosphatase non-receptor type 2 (Homo sapiens, UniProt P17706); test: Inhibition of TCPTP (unknown origin) using pNPP as substrate incubated for 30 mins by spectrophotometry
T1 sequence (P17706 whole entry): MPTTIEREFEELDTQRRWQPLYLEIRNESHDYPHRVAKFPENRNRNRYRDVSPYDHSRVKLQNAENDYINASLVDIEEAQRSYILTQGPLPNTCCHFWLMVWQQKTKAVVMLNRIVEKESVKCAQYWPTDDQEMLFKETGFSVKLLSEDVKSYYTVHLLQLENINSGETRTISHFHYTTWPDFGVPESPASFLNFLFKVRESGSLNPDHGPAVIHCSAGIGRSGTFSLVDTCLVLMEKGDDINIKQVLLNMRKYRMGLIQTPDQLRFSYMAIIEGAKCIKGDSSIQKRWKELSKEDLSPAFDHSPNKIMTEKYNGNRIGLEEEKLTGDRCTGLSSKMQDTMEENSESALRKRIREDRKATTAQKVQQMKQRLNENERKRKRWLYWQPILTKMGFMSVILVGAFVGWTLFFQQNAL

Hepatocyte [5] = test: Inhibition of insulin-resistance in insulin-resistant C57BL/J mouse […] primary hepatocytes assessed as increase in AKT phosphorylation pretreated for 24 hrs followed by compound washout and further addition of insulin measured after 20 mins by Western blot analysis; assay type: functional, cell-based; settings: dose 0.625-2.5 µM
3T3-L1 [6] = test: Induction of glucose uptake in mouse 3T3-L1 cells cultured in low glucose medium containing compound for 24 hrs; assay type: functional, cell-based; settings: dose 0.625-2.5 µmol/L
Mus musculus [7] = test: Hypoglycemic activity in BKD db/db mouse assessed as decrease in blood glucose level at 40 to 80 mg/kg/day, po for 6 weeks by OGTT method; assay type: functional, organism-based; settings: dose 40-80 mg/kg/day
[8] = Acute toxicity in Kunming mouse assessed as change in cell morphology of liver at 2000 mg/kg, po measured for 14 days by H and E staining based analysis; assay type: organism-based; settings: in vivo, 336 h, time 14 day
HepG2 [9] = test: Induction of glucose uptake in human HepG2 cells cultured in low glucose medium containing compound for 24 hrs; assay type: functional, cell-based; settings: dose 0.625-2.5 µmol/L
[10] = Toxicity in BKD db/db mouse assessed as effect on kidney weight at 40 to 80 mg/kg/day, po qd for 8 weeks; assay type: organism-based; settings: in vivo, 1344 h, dose 40-80 mg/kg/day
[11] = Acute toxicity in Kunming mouse assessed as change in cell morphology of kidney at 2000 mg/kg, po measured for 14 days by H and E staining based analysis; assay type: organism-based; settings: in vivo, 336 h, time 14 day
[12] = Toxicity in BKD db/db mouse assessed as effect on para-metrial white adipose tissue weight at 40 to 80 mg/kg/day, po qd for 8 weeks; assay type: organism-based; settings: in vivo, 1344 h, dose 40-80 mg/kg/day
3T3-L1 [13] = test: Inhibition of insulin-resistance in insulin-resistant mouse 3T3-L1 cells assessed as increase in insulin receptor phosphorylation pretreated for 24 hrs followed by compound washout and further addition of insulin measured after 20 mins by Western blot analysis; assay type: functional, cell-based; settings: dose 0.625-2.5 µM
HepG2 [14] = test: Inhibition of insulin-resistance in insulin-resistant human HepG2 cells assessed as increase in insulin receptor phosphorylation pretreated for 24 hrs followed by compound washout and further addition of insulin measured after 20 mins by Western blot analysis; assay type: functional, cell-based; settings: dose 0.625-2.5 µM
[15] = biological target: T2, Tyrosine-protein phosphatase non-receptor type 1 (Homo sapiens, UniProt P18031); test: Allosteric inhibition of PTP1B (unknown origin) using pNPP as substrate incubated for 30 mins by spectrophotometry
T2 sequence (P18031 whole entry): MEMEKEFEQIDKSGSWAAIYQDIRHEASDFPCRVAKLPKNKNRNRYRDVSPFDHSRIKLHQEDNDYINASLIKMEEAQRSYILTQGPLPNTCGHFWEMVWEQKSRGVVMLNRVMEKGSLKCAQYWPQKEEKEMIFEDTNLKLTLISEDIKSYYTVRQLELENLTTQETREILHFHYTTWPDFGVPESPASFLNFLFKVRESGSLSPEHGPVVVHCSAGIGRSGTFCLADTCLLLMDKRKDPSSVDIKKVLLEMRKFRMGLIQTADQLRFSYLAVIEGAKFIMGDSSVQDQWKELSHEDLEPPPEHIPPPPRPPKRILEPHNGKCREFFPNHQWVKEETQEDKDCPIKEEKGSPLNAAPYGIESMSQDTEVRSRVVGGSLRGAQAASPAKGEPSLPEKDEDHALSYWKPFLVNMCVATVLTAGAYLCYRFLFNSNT

[16] = Acute toxicity in Kunming mouse assessed as animal mortality at 2000 mg/kg, po measured for 14 days; assay type: organism-based; settings: in vivo, 336 h, time 14 day
Mus musculus [17] = test: Hypoglycemic activity in BKD db/db mouse assessed as reduction in lipid droplet accumulation in liver at 40 to 80 mg/kg/day, po for 8 weeks by H and E staining based analysis; assay type: functional, organism-based; settings: dose 40-80 mg/kg/day
[18] = Toxicity in BKD db/db mouse assessed as effect on food intake at 40 to 80 mg/kg/day, po qd for 8 weeks; assay type: organism-based; settings: in vivo, 1344 h, dose 40-80 mg/kg/day
[19] = Toxicity in BKD db/db mouse assessed as effect on subcutaneous fat weight at 40 to 80 mg/kg/day, po qd for 8 weeks; assay type: organism-based; settings: in vivo, 1344 h, dose 40-80 mg/kg/day
Mus musculus [20] = test: Hypoglycemic activity in BKD db/db mouse assessed as increase in insulin receptor phosphorylation in epididymal white adipose tissue at 40 to 80 mg/kg/day, po for 8 weeks by Western blot analysis; assay type: functional, organism-based; settings: dose 40-80 mg/kg/day
[21] = biological target: T2, Tyrosine-protein phosphatase non-receptor type 1; test: Allosteric inhibition of recombinant human PTP1B (1 to 321 residues) using pNPP as substrate preincubated for 5 mins followed by substrate addition measured after 10 mins
[22] = Acute toxicity in Kunming mouse assessed as behavioural changes at 2000 mg/kg, po measured for 14 days; assay type: organism-based; settings: in vivo, 336 h, time 14 day
C2C12 = test: Inhibition of insulin-resistance in insulin-resistant mouse C2C12 cells assessed as increase in insulin receptor phosphorylation pretreated for 24 hrs followed by compound washout and further addition of insulin measured after 20 mins by Western blot analysis; assay type: functional, cell-based; settings: dose 0.625-2.5 µM
Mus musculus [23] = test: Hypoglycemic activity in BKD db/db mouse assessed as regular arrangement of liver cells at 40 to 80 mg/kg/day, po for 8 weeks by H and E staining based analysis; assay type: functional, organism-based; settings: dose 40-80 mg/kg/day
[24] = Acute toxicity in Kunming mouse assessed as toxic effects at 2000 mg/kg, po measured for 14 days; assay type: organism-based; settings: in vivo, 336 h, time 14 day
[25] = Inhibition of PTP1B N193A/K197A mutant (unknown origin) using pNPP as substrate incubated for 30 mins by spectrophotometry; design: species or system Homo sapiens
Mus musculus [26] = test: Hypoglycemic activity in BKD db/db mouse assessed as increase in AKT phosphorylation in liver at 40 to 80 mg/kg/day, po for 8 weeks by Western blot analysis; assay type: functional, organism-based; settings: dose 40-80 mg/kg/day

CCOc1ccc(Oc2ccc(C(=O)/C=C/c3cc(O)c(O)c(Br)c3Br)cc2)cc1
Non-toxic: Activity [3] | Activity [8] | Activity [10] | Activity [11] | Activity [12] | Activity [16] | Activity [18] | Activity [19] | Activity [22] | Activity [24]
1.06 µM: IC50 [15]
15.8 µM: IC50 [4]
14.8 µM: IC50 [25]
active: inhibition (Hepatocyte [1]) Dose-dependent-effect | Activity (Mus musculus [2]) | inhibition (Hepatocyte [5]) Dose-dependent-effect | Activity (3T3-L1 [6]) Dose-dependent-effect | Activity (Mus musculus [7]) | Activity (HepG2 [9]) Dose-dependent-effect | inhibition (3T3-L1 [13]) Dose-dependent-effect | inhibition (HepG2 [14]) Dose-dependent-effect | Activity (Mus musculus [17]) | Activity (Mus musculus [20]) | inhibition (C2C12) Dose-dependent-effect | Activity (Mus musculus [23]) | Activity (Mus musculus [26])
2.33 µM: Ki [21]
